Where “and” joins values, the source holds several entries; their conditions need not be identical. Equal values may be shown once.
Target: T1, human Notum (81–451 Cys330Ser) (Homo sapiens, UniProt Q6P988, C330S)
T1 construct: human Notum (81–451 Cys330Ser) as the enzyme; made in house
T1 sequence (Q6P988 81-451 C330S): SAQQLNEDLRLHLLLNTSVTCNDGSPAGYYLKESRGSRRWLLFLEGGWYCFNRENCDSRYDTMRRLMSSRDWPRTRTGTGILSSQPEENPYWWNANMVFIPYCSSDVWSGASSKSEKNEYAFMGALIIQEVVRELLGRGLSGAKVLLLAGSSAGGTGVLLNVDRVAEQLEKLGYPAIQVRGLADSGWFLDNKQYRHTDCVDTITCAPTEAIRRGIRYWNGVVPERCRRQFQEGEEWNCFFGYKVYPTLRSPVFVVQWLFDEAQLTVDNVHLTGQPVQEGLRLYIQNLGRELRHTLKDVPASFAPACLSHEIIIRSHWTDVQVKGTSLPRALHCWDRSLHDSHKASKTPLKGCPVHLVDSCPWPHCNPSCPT
Test: Notum OPTS biochemical assay
Details: for IC50: OPTS substrate, mean, read-out: Notum IC50
Text: The optimization of 6 to deliver this profile was directed at three principle areas of these hit structures: (1) aryl ring 7 (Table 1); (2) the C4 substituent on triazole 8 (Table 2); and (3) further fine-tuning of the triazole 9 (Table 3). […] This assay was used to establish SAR and to identify preferred leads for additional studies.
Methods have been described in detail elsewhere.[23]−[26] Representative concentration–response curves are provided in the Supporting Information.

Row | Compound | IC50 | % I (@10 μM) | % I (@100 μM)
1 | Cc1cccc(-n2cc(CO)nn2)c1 [7e, ((3-Methylphenyl)-1H-1,2,3-triazol-4-yl)methanol] | ~10 µM and 10 µM | b 40–50% I@10 μM. | 
2 | N#Cc1cccc(-n2cc(CO)nn2)c1 [7h, ((3-Cyanophenyl)-1H-1,2,3-triazol-4-yl)methanol] | 83 ± 36 µM |  | 
3 | OCc1cn(-c2ccc(F)cc2)nn1 [7j, ((4-Fluorophenyl)-1H-1,2,3-triazol-4-yl)methanol] | ~100 µM and 100 µM |  | c 40–50% I@100 μM.
4 | OCc1cn(-c2ccc(C(F)(F)F)c(C(F)(F)F)c2)nn1 [7v, ((3,4-Bis(trifluoromethyl)phenyl)-1H-1,2,3-triazol-4-yl)methanol] | 2.2 ± 4.4 µM |  | 
5 | CC(O)c1cn(-c2ccc(Cl)c(C(F)(F)F)c2Cl)nn1 (stereo not drawn) [8a, 1-(1-(2,4-Dichloro-3-(trifluoromethyl)phenyl)-1H-1,2,3-triazol-4-yl)ethan-1-ol] | 1.8 ± 1 µM |  | 
6 | OCCc1cn(-c2ccc(Cl)c(C(F)(F)F)c2Cl)nn1 [8b, 2-(1-(2,4-Dichloro-3-(trifluoromethyl)phenyl)-1H-1,2,3-triazol-4-yl)ethan-1-ol] | 5.7 ± 2.5 µM |  | 

Continued by falling IC50, values first:

Row | IC50 | % I (@10 μM) | % I (@100 μM) | Compound
7 | 270 ± 310 µM |  |  | N#Cc1ccc(-n2cc(CO)nn2)cc1 [7m, ((4-Cyanophenyl)-1H-1,2,3-triazol-4-yl)methanol]
8 | 230 ± 20 µM |  |  | CCOc1cccc(-n2cc(CO)nn2)c1 [7i, ((3-Ethoxyphenyl)-1H-1,2,3-triazol-4-yl)methanol]
9 | 110 ± 30 µM |  |  | OCc1cn(-c2ccccc2)nn1 [7a, (1-Phenyl-1H-1,2,3-triazol-4-yl)methanol]
10 | 78 ± 45 µM |  |  | CCOc1ccc(-n2cc(CO)nn2)cc1 [7n, ((4-Ethoxyphenyl)-1H-1,2,3-triazol-4-yl)methanol]
11 | 25 ± 3 µM |  |  | OCc1cn(-c2cccc(F)c2)nn1 [7d, ((3-Fluorophenyl)-1H-1,2,3-triazol-4-yl)methanol]
12 | 13 ± 2 µM |  |  | Cc1ccc(-n2cc(CO)nn2)cc1 [7k, ((4-Methylphenyl)-1H-1,2,3-triazol-4-yl)methanol]
13 | 1.8 ± 0.5 µM |  |  | OCCCc1cn(-c2ccc(Cl)c(C(F)(F)F)c2Cl)nn1 [8c, 3-(1-(2,4-Dichloro-3-(trifluoromethyl)phenyl)-1H-1,2,3-triazol-4-yl)propan-1-ol]

From article PMC9150124, “Design of a Potent, Selective, and Brain-Penetrant Inhibitor of Wnt-Deactivating Enzyme Notum by Optimization of a Crystallographic Fragment Hit” (Journal of Medicinal Chemistry, 2022)
